Assay results taken from patent US20240122905A1, “PHARMACEUTICAL COMPOSITION” (MedinCell S.A., priority 2020, published 2024).

Experiment: PK1: absolute/subcutaneous bioavailability study of Tacrolimus solution (IV and SC)
Assay type: in vivo, female Göttingen minipig
Settings: for AUClast/D1 / AUC∞/D1 / Cmax/D1: dose-normalized by actual dose per kg
Procedure: PK1: A 2-Month Pharmacokinetic Study of Different Sustained-Release Formulations of Tacrolimus after Subcutaneous Administration and Subcutaneous Bioavailability Study of Tacrolimus in Female Göttingen Minipig
Evaluation of the Absolute Bioavailability of Tacrolimus
The dose volume for each animal was 12.5 mL corresponding to a unique dose of 2.5 mg/animal. Solution was administered: • intravenously into the ear vein using 20 mL polypropylene syringe and 23 G butterfly needle. • subcutaneously in a skin fold caudal to the axillar region/shoulder using 20 mL polypropylene syringe and 21 G needle.
Blood samples were collected into EDTA tubes at predose and at different time points: • Intravenous dosing: 5 min (0.083 h), 15 min (0.25 h), 30 min (0.5 h), and 1, 2, 6, 24, 48, 72 and 96 h after end of dosing. • Subcutaneous dosing: 30 min (0.5 h), and 1, 2, 4, 6, 10, 24, 48, 72 and 96 h after end of dosing.
Whole blood samples were analyzed to determine the concentration of the test item using a qualified analytical procedure. 2-Month Pharmacokinetic Study of Sustain-Release Formulations

[1] = Tacrolimus solution 2.5 mg/animal IV
[2] = Tacrolimus solution 2.5 mg/animal SC
[3] = female, Göttingen, minipig, Tacrolimus solution 2.5 mg/animal IV, whole blood
[4] = female, Göttingen, minipig, Tacrolimus solution 2.5 mg/animal SC, whole blood

In the case of `C=CC[C@@H]1/C=C(\C)C[C@H](C)C[C@H](OC)[C@H]2O[C@@](O)(C(=O)C(=O)N3CCCC[C@H]3C(=O)OC(/C(C)=C/[C@@H]3CC[C@@H](O)[C@H](OC)C3)[C@H](C)[C@@H](O)CC1=O)[C@H](C)C[C@@H]2OC` (stereo partly shown) [Tacrolimus], the AUClast/D1 [1] is reported as 17900 ± 1620 kg·ng·h/mL/mg, the “AUC∞/D1” value [1] is reported as 19700 ± 1750 kg·ng·h/mL/mg and the Clast (Tacrolimus solution 2.5 mg/animal IV, whole blood) is reported as 4.22 ± 2.08 ng/mL. The tlast (Tacrolimus solution 2.5 mg/animal IV, whole blood, median (range)) was 95.7 (95.7-96.1)^$ h, the AUClast/D1 [2] was 17100 ± 1090 kg·ng·h/mL/mg and the “AUC∞/D1” value [2] was 18100 ± 1150 kg·ng·h/mL/mg. The Cmax/D1 [2] was 779 ± 30.8 kg·ng/mL/mg, the Cmax/D1 (Tacrolimus solution 2.5 mg/animal SC, listed as immediate release compound) was 779 kg·ng/mL/mg and the Clast (Tacrolimus solution 2.5 mg/animal SC, whole blood) was 2.89 ± 0.759 ng/mL. The tlast (Tacrolimus solution 2.5 mg/animal SC, whole blood, median) was 96 h, the bioavailability (female, Göttingen, minipig, whole blood, subcutaneous, Tacrolimus solution 2.5 mg/animal SC vs IV) was 92.4% and the AUC(0-inf) [3] was 2040 ± 258 ng·h/mL. It also gave an AUC(0-t) [3] of 1850 ± 224 ng·h/mL, a half-life [3] of 31.5 ± 1.62 h and an AUC(0-inf) [4] of 1870 ± 189 ng·h/mL. The AUC(0-t) [4] was 1760 ± 169 ng·h/mL, the Cmax [4] was 80.2 ± 2.63 ng/mL and the half-life [4] was 25.7 ± 2.25 h. For the same compound, the Tmax (female, Göttingen, minipig, Tacrolimus solution 2.5 mg/animal SC, whole blood, median) was 4 h.
